Marks after values point to notes of the source that are not given here.
Legend:
[1] = target: T1, Human recombinant HMG-CoA reductase (Homo sapiens, UniProt P04035); experiment: HMG-CoA reductase inhibition test ([14C]mevalonate formation); type: biochemical; conditions: for inhibition at 3 µM / inhibition at 30 µM: duplicates; for HMG-CoA reductase inhibiting activity (in words): own investigations
T1 sequence (P04035 426-888 limits assumed): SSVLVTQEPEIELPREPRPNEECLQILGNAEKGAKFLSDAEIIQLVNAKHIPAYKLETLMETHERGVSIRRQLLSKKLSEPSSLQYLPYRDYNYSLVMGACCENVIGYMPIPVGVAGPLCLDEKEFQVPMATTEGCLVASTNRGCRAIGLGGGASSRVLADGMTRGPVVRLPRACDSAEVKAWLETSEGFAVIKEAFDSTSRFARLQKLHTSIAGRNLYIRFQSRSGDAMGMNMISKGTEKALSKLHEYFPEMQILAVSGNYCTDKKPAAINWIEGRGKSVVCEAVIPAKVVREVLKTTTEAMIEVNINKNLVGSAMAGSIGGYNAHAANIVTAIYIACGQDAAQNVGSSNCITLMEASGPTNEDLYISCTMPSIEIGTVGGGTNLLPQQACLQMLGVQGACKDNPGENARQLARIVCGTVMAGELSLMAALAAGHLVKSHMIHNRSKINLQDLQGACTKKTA
Experimental: Inhibition of HMG-CoA reductase was determined under following conditions. Human recombinant HMG-CoA reductase were pre-incubated with 35 ng/ml enzyme in reaction buffer, pH 7.5 (100 mM KH2PO4, 8 mM Glucose-6-Phosphate, 1 mM nicotinamide adenine dinucleotide phosphate, 4 mM ethylenediaminetetraacetic acid, 2 mM dithiothreitol, 0.6 Units glucose-6-phosphate dehydrogenase) for 15 minutes at 37° C. The reaction was initiated by addition of 2.5 μM [14C]HMG-CoA for another 20 minute incubation period and terminated by further addition of 1 N HCl. An aliquot was removed and then counted to determine the amount of [14C]Mevalonate formed. […] All samples were measured in duplicates.

[2] = test system: hamsters fed with a high-cholesterol diet; experiment: In vivo food cholesterol reduction (hypocholesterolemic activity); design: species or system golden Syrian hamsters; conditions: oral once a day, extract 100 mg/kg, ezetimibe 1 mg/kg
Experimental: The dry extract of example 1 was evaluated for possible hypocholesterolemic activity in hamsters fed with a high-cholesterol diet. Groups of 10 male golden Syrian hamsters were induced to hypercholesterolemia by a high cholesterol diet (g/100 g: 5.0 corn oil, 5.0 coconut oil, 0.2 cholesterol and 89.8 standard diet throughout the 28-day experimental period. After the test animals had been kept on the high cholesterol diet for 7 days, vehicle (1% Cremophor EL in phosphate buffered saline) and extract of example 1 (incorporated into said vehicle) were administered orally, starting on day 1, for 28 days at 100 mg/kg, once a day, were administered orally for 28 consecutive days. Ezetimibe, the positive control, was also administered orally (at 1 mg/kg) for 28 consecutive days. Blood was drawn in overnight fasted animals on day 1 (pre-treatment), day 8, day 15, and day 29 for measurements of serum total cholesterol (Total plasma cholesterol), high density lipoprotein (HDL), low density lipoprotein (LDL) and triglyceride (TG) levels. The measurement values on day 8, day 15, […] and day 29 were transformed into percentage. One-way ANOVA and Dunnett's test were used to ascertain difference between vehicle control and treated groups.

Structure (SMILES) | inhibition at 3 µM [1] [%] | inhibition at 30 µM [1] [%] | other results
O=c1c(O[C@@H]2O[C@H](CO)[C@H](O)[C@H](O)[C@H]2O)c(-c2ccc(O)c(O)c2)oc2cc(O)cc(O)c12 [Quercetin-3-O-beta-D-galactopyranoside] | 75 |  | HMG-CoA reductase inhibiting activity (in words) [1]: very good HMG-CoA reductase inhibiting activity
O=C1[C@H](CC[C@H](O)c2ccc(F)cc2)[C@@H](c2ccc(O)cc2)N1c1ccc(F)cc1 [Ezetimibe] |  |  | LDL levels relative to day one ([2]; t = day 1 (pre-treatment)): 100%; Total plasma cholesterol levels relative to day one (pre-treatment) ([2]; t = day 1 (pre-treatment)): 100%; LDL levels relative to day one ([2]; t = day 15): 22%*; Total plasma cholesterol levels relative to day one (pre-treatment) ([2]; t = day 15): 61%*; LDL levels relative to day one ([2]; t = day 29): 15%*; Total plasma cholesterol levels relative to day one (pre-treatment) ([2]; t = day 29): 41%*
C[C@@H]1CC[C@]2(C(=O)O)CC[C@]3(C)C(=CC[C@@H]4[C@@]5(C)CC[C@@H](O)[C@](C)(CO)[C@@H]5CC[C@]43C)[C@@H]2[C@]1(C)O [Barbinervic acid] |  | 37 | 
C[C@H]1[C@H](C)CC[C@]2(C(=O)O)CC[C@]3(C)C(=CC[C@@H]4[C@@]5(C)CC[C@H](O)C(C)(C)[C@@H]5CC[C@]43C)[C@H]12 [Ursolic acid] | 0 | 0 | 
CC[C@H](C)C(=O)O[C@H]1C[C@@H](C)C=C2C=C[C@H](C)[C@H](CC[C@@H]3C[C@@H](O)CC(=O)O3)[C@H]21 [Lovastatin] | 100 | 100 | 

The next lines start with results.

inhibition at 3 µM [1] [%] | inhibition at 30 µM [1] [%] | Structure (SMILES) | other results
91 |  | C[C@@H]1CC[C@]2(C(=O)O)CC[C@]3(C)C(=CC[C@@H]4[C@@]5(C)C[C@@H](O)[C@@H](O)C(C)(C)[C@@H]5CC[C@]43C)[C@@H]2[C@]1(C)O [Euscaphic acid] | HMG-CoA reductase inhibiting activity (in words) [1]: strongest HMG-CoA reductase inhibiting activity
 | 25 | C[C@@H]1CC[C@]2(C(=O)O)CC[C@]3(C)C(=CC[C@@H]4[C@@]5(C)CC[C@H](O)C(C)(C)[C@@H]5CC[C@]43C)[C@@H]2[C@]1(C)O [Pomolic acid] | 
